Where a name gives a salt, the structure may show the parent alone. Square brackets hold non-standard residues; d marks the D form. Peptide text beside a SMILES is read from it. d2Nal = N[C@H](Cc1ccc2ccccc2c1)C(=O)O

Data set [1] is described as follows: Moisture absorption test (hygroscopic properties) of test carriers. In kind it is physicochemical. The settings on record: for % Moisture Absorption: 25° C.; for Hygroscopicity, result in words: moisture absorption tests, comparison of carriers. Details: key to % Moisture Absorption: x: Not possible to measure (because the samples deliquesced.). How it is done:
For the objective of selecting a material suitable as the carrier for a dry powder inhalation, moisture absorption tests were performed on erythritol, xylitol, lactose, D-mannitol, Amalty, glucose, Stevia, Benecoat and aspartame. […] (Tables 1, 2, and 3)
In order to ascertain that trehalose is a material having properties suitable as a carrier for dry powder inhalations, it was compared to lactose, a well-known carrier for dry powder inhalation. A test was carried out for comparing hygroscopicity. The trehalose used was the product of Asahi Kasei Kogyo KK, and Lactose 325M from the DMV Company. […] (Table 4, 5)

Data set [2] can be described thus: In vitro lung delivery fraction test with multi-stage cascade impactor (Andersen sampler, Jethaler). In kind it is physicochemical. The settings on record: Example 11: Pralmorelin dihydrochloride 5.0%, carrier erythritol 93.5%, micronized lactose 1.5%, 28.3 L/min. How it is done:
Capsulated preparations (The Japanese Pharmacopeia No. 2 HPMC capsules: manufactured by Shionogi Qualicaps Co., Ltd.) which were filled with about 40 mg each of three dry powder inhalations were prepared and mounted on an inhaler device (Jethaler; Unisia Jecs Corp.) The Jethaler was then attached to the mouthpiece of a cascade impactor (Andersen sampler Model AN-200) and inspired at a flow rate of 28.3 L/min., thereby dispersing the micronized medication in the capsule and measuring the residual active ingredient in the capsule and in the inhaler device as well as the distribution of the active ingredient at each stage with liquid chromatography. It was confirmed that in the in vitro test with cascade impactor, the lung delivery fraction at stages 2–7 corresponding to the respiring fraction differed substantially depending on the different carrier particles.
(§1) Capsulated preparations (The Japanese Pharmacopeia No. 2HPMC capsules: manufactured by Shionogi Qualicaps Co., Ltd.), which were filled with about 40 mg each of three dry powder inhalations, were prepared and mounted on an inhaler device (Jethaler®; Unisia Jecs Corp.). The Jethaler® brand device was then attached to the mouthpiece of a cascade impactor (Andersen sampler; Model AN-200) and inspired at a flow rate of 28.3 L/min., thereby dispersing the dry powder inhalation in the capsule and measuring the residual active ingredient in the capsule and in the inhaler device as well as the distribution of the active ingredient at each stage with liquid chromatography.
(§2) A capsulated preparation (The Japanese Pharmacopeia No. 2HPMC capsules: manufactured by Shionogi Qualicaps Co., Ltd.) which was filled with about 40 mg of the prepared dry powder inhalations was prepared and mounted on an inhaler device (Jethaler; Unisia Jecs Corp.) The Jethaler was then attached to the mouthpiece of a cascade impactor (Andersen sampler; Model AN-200) and inspired at a flow rate of 28.3 L/min., thereby dispersing the dry powder inhalation in the capsule and measuring the residual active ingredient in the capsule and in the inhaler device as well as the distribution of the active ingredient at each stage with liquid chromatography.
as §1, with “A capsulated preparation (The” for “Capsulated preparations (The”, “which was” for “which were”, “mg” for “mg each”, “chromatography. […]” for “chromatography.”
as §2, with “2 HPMC” for “2HPMC”, “Ltd.)” for “Ltd.) which was”, “inhalation” for “inhalations”

Setting [3] is: Table 2, Humidity 75%, 24 Hours.
The mark [4] stands for this setting: Table 2, Humidity 75%, 48 Hours.
Where [5] appears, read: Table 2, Humidity 75%, 72 Hours.
Where [6] appears, read: Table 2, Humidity 75%, 168 Hours.
Setting [7] is: Table 3, Humidity 90%, 16 Hours.
Setting [8] is: Table 3, Humidity 90%, 24 Hours.
The mark [9] stands for this setting: Table 3, Humidity 90%, 48 Hours.
[10] abbreviates: Table 3, Humidity 90%, 72 Hours.
Where [11] appears, read: Table 3, Humidity 90%, 168 Hours.
Where [12] appears, read: Table 1, Humidity 60%, 24 Hours.
[13] abbreviates: Table 1, Humidity 60%, 72 Hours.
Setting [14] is: Table 1, Humidity 60%, 168 Hours.
[15] abbreviates: Table 1, Humidity 60%, 366 Hours.
[16] abbreviates: Table 2, Humidity 75%, 336 Hours.
Where [17] appears, read: Table 4, Humidity 60%, 24 Hours.
The mark [18] stands for this setting: Table 4, Humidity 60%, 72 Hours.
Where [19] appears, read: Table 4, Humidity 60%, 168 Hours.
Where [20] appears, read: Table 4, Humidity 60%, 366 Hours.
The mark [21] stands for this setting: Table 5, Humidity 75%, 48 Hours.
The mark [22] stands for this setting: Table 5, Humidity 75%, 72 Hours.
Where [23] appears, read: Table 5, Humidity 75%, 168 Hours.

For `OC[C@@H](O)[C@@H](O)[C@H](O)[C@H](O)CO` [D-Mannitol], the “% Moisture Absorption” value in data set [1] (setting [3]) was found to be 0.019%; in data set [1] (setting [4]), 0.019%; in data set [1] (setting [5]) it was 0.019%; in data set [1] (setting [6]), 0.028%; in data set [1] (setting [7]), 0.539%; in data set [1] (setting [8]), 0.672%. Besides, the entries for the “% Moisture Absorption” value in data set [1] (setting [9]), in data set [1] (setting [10]) and in data set [1] (setting [11]) were 0.806%, 0.916% and 1.122%, respectively.
In the case of `COC(=O)[C@H](Cc1ccccc1)NC(=O)[C@@H](N)CC(=O)O` [Aspartame] (H-Asp-Phe-OMe), the “% Moisture Absorption” value in data set [1] (setting [3]) turned out to be 6.539%; in data set [1] (setting [4]) it was 10.877%; in data set [1] (setting [5]) it was 10.985%; in data set [1] (setting [6]) it was 11.163%; in data set [1] (setting [7]) it was 10.476%; in data set [1] (setting [8]), 10.741%. For the same compound, the “% Moisture Absorption” value in data set [1] (setting [9]) came out at 11.448%; in data set [1] (setting [10]) it was 11.521%; in data set [1] (setting [11]), 11.749%.
On to `OC[C@@H](O)[C@@H](O[C@H]1O[C@H](CO)[C@@H](O)[C@H](O)[C@H]1O)[C@H](O)[C@@H](O)CO` [Amalty], for which the “% Moisture Absorption” value in data set [1] (setting [3]) is reported as 0.478%; in data set [1] (setting [4]), 1.138%; in data set [1] (setting [5]) it was 1.171%; in data set [1] (setting [6]) it was 1.252%; in data set [1] (setting [7]) it was 0.775%; in data set [1] (setting [8]), 0.971%. Moreover, the “% Moisture Absorption” value in data set [1] (setting [9]) worked out at 2.513%; in data set [1] (setting [10]) it was 3.373%; in data set [1] (setting [11]) it was 8.391%.
Regarding `OC[C@@H](O)[C@H](O)[C@@H](O)CO` [Xylitol], the “% Moisture Absorption” value in data set [1] (setting [12]) is recorded as 0.000%; in data set [1] (setting [13]), 0.000%; in data set [1] (setting [14]), 0.019%; in data set [1] (setting [15]) it was 0.021%; in data set [1] (setting [3]) it was 0.087%; in data set [1] (setting [4]), 0.104%. Moreover, the “% Moisture Absorption” value in data set [1] (setting [5]) is given as 0.126%; in data set [1] (setting [6]), 0.124%; in data set [1] (setting [16]), 0.126%; in data set [1] (setting [8]) it was 3.796%; in data set [1] (setting [9]), 17.917%; in data set [1] (setting [10]), “x”. The “% Moisture Absorption” value in data set [1] (setting [11]) is listed as “x”.
In the case of `OC[C@H]1O[C@@H](O[C@H]2[C@H](O)[C@@H](O)C(O)O[C@@H]2CO)[C@H](O)[C@@H](O)[C@H]1O` (stereo partly shown) [Lactose 325M, Lactose], the “% Moisture Absorption” value in data set [1] (setting [12]) was 0.000%; in data set [1] (setting [13]), 0.000%; in data set [1] (setting [14]) it was 0.000%; in data set [1] (setting [15]) it was 0.000%; in data set [1] (setting [3]), 0.029%; in data set [1] (setting [5]) it was 0.031%. In addition, the “% Moisture Absorption” value in data set [1] (setting [6]) came out at 0.033%; in data set [1] (setting [16]) it was 0.031%; in data set [1] (setting [8]), 0.094%; in data set [1] (setting [10]) it was 0.090%; in data set [1] (setting [11]), 0.092%; in data set [1] (setting [17]), 0.000%. The “% Moisture Absorption” value in data set [1] (setting [18]) stood at 0.000%; in data set [1] (setting [19]), 0.000%; in data set [1] (setting [20]), 0.000%; in data set [1] (Table 5, Humidity 75%, 16 Hours), 0.029%; in data set [1] (setting [21]) it was 0.031%; in data set [1] (setting [22]) it was 0.033%. For the same compound, the “% Moisture Absorption” value in data set [1] (setting [23]) amounted to 0.031%.
With `OC[C@H]1O[C@H](O[C@H]2O[C@H](CO)[C@@H](O)[C@H](O)[C@H]2O)[C@H](O)[C@@H](O)[C@@H]1O` [Trehalose], the “% Moisture Absorption” value in data set [1] (setting [17]) was found to be 0.000%; in data set [1] (setting [18]), 0.000%; in data set [1] (setting [19]), 0.000%; in data set [1] (setting [20]), 0.000%; in data set [1] (setting [21]), 0.008%; in data set [1] (setting [22]) it was 0.023%. The “% Moisture Absorption” value in data set [1] (setting [23]) came out at 0.020%. Moreover, in data set [1], the “Hygroscopicity, result in words” value is listed as “only slightly hygroscopic”.
Take `C[C@H](NC(=O)[C@@H](Cc1ccc2ccccc2c1)NC(=O)[C@@H](C)N)C(=O)N[C@@H](Cc1c[nH]c2ccccc12)C(=O)N[C@H](Cc1ccccc1)C(=O)N[C@@H](CCCCN)C(N)=O` [Pralmorelin dihydrochloride, reference compound] (H-[dA][d2Nal]AW[dF]K-NH2): in data set [2], the “Residual and Distributed Fractions of Active Ingredient (%): Capsule” value was 3.6%; the “Residual and Distributed Fractions of Active Ingredient (%): Inhaler device” value came out at 11.5%; the “Residual and Distributed Fractions of Active Ingredient (%): Stage 0” value came to 7.7%; the “Residual and Distributed Fractions of Active Ingredient (%): Stage 1” value was 26.6%.
`OC[C@@H](O)[C@@H](O)CO` [Erythritol]: the “% Moisture Absorption” value was determined as 0.000% in data set [1] (setting [12]); 0.000% in data set [1] (setting [13]); 0.000% in data set [1] (setting [14]); 0.000% in data set [1] (setting [15]); 0.008% in data set [1] (setting [3]); 0.011% in data set [1] (setting [4]). In addition, the “% Moisture Absorption” value in data set [1] (setting [5]) stood at 0.014%; in data set [1] (setting [6]), 0.010%; in data set [1] (setting [16]), 0.012%; in data set [1] (setting [8]), 0.055%; in data set [1] (setting [9]) it was 0.070%; in data set [1] (setting [10]), 0.070%. Besides, in data set [1] (setting [11]), the “% Moisture Absorption” value is 0.070%. Further, the “Hygroscopicity, result in words” value in data set [1] is on record as “least hygroscopic”.
